We go through six compounds from patent publication US20240208992A1, “MACROCYCLES AS CFTR MODULATORS” (Idorsia Pharmaceuticals Ltd, priority 2021, published 2024).

For the assay, the target named is human F508del-CFTR (Homo sapiens, UniProt P13569, DEL508-508). Put plainly: F508del-CFTR cell surface expression (corrector activity), DiscoveRx ß-galactosidase complementation chemiluminescence assay in recombinant U2OS cell line.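 For all read-outs here: U2OS cells co-expressing ProLink-tagged F508del-CFTR and a membrane-anchored enzyme acceptor, where more surface CFTR restores β-galactosidase activity measured by chemiluminescence.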 The settings on record: U2OS cells, 16h compound incubation; for EC50: EC50, F508del-CFTR cell surface expression, geomean of several measurements; for Emax: U2OS, in relation to the Emax of the corrector lumacaftor (=100%), arithmetic mean.
Sequence of human F508del-CFTR (P13569 with tags, fused parts or gaps DEL508-508): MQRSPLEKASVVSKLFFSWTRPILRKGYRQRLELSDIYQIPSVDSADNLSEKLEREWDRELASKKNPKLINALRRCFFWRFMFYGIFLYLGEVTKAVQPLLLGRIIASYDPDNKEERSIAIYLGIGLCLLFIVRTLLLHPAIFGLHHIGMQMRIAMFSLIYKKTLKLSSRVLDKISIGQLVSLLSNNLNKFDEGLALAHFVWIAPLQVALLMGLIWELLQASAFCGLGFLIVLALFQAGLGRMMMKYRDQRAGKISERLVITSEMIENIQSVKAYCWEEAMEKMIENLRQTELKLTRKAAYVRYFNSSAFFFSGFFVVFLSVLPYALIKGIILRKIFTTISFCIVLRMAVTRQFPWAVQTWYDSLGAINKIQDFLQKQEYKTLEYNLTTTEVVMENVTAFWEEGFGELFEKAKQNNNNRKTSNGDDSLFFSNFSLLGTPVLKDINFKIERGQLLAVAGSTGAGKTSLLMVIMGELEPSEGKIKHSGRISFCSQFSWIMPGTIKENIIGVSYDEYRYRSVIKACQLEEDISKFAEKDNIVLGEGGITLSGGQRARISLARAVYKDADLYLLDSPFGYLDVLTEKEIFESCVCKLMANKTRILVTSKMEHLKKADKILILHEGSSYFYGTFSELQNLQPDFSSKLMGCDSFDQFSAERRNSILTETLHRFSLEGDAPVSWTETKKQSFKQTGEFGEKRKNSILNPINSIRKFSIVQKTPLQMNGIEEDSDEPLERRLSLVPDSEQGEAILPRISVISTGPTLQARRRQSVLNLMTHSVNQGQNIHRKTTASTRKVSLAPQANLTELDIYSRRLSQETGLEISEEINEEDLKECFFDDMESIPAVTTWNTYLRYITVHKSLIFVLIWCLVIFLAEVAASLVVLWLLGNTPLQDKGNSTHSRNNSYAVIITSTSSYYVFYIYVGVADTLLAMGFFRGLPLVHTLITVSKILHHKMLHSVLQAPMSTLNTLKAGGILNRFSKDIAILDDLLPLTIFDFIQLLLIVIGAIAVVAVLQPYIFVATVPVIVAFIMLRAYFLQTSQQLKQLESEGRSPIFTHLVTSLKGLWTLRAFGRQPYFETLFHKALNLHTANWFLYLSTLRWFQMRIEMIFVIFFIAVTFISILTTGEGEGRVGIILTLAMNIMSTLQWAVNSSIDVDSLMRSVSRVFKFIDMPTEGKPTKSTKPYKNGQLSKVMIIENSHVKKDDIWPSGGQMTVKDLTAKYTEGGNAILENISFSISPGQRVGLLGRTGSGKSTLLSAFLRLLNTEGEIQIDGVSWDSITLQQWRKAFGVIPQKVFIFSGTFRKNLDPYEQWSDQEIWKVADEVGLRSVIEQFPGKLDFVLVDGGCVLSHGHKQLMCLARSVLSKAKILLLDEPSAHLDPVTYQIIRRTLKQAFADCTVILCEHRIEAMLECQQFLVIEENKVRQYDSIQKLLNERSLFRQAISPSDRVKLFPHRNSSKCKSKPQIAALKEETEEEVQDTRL

The EC50 is the concentration at which the effect is half-maximal. A word on the Emax: it is the greatest response seen or fitted, relative to the assay's reference.

For `COc1cc(C[C@@H]2C(=O)N[C@H](Cc3ccccc3)COc3ccnc(OC)c3C(=O)N[C@H](C(=O)NCCc3noc(C4CC4)n3)CC(=O)N(C)[C@@H](CC(C)C)C(=O)N2C)on1` [Example 861, (3R,6R,9S,13S)-3-benzyl-N-(2-(5-cyclopropyl-1,2,4-oxadiazol-3-yl)ethyl)-9-isobutyl-16-methoxy-6-((3-methoxyisoxazol-5-yl)methyl)-7,10-dimethyl-5,8,11,15-tetraoxo-2,3,4,5,6,7,8,9,10,11,12,13,14,15-tetradecahydropyrido[3,4-p][1]oxa[4,7,10,14]tetraazacycloheptadecine-13-carboxamide], the EC50 came to 722 nM and the Emax was determined as 384%.

As to `COc1nc(C)nc2c1C(=O)N[C@H](C(=O)NCCc1cc(C3CC3)no1)CC(=O)N(C)[C@@H](CC(C)C)C(=O)N(C)[C@H](C)C(=O)N[C@H](Cc1ccccc1)CO2` [Example 862, (7S,11S,14R,17R)-17-benzyl-N-(2-(3-cyclopropylisoxazol-5-yl)ethyl)-11-isobutyl-4-methoxy-2,10,13,14-tetramethyl-5,9,12,15-tetraoxo-5,6,7,8,9,10,11,12,13,14,15,16,17,18-tetradecahydropyrimido[5,4-p][1]oxa[4,7,10,14]tetraazacycloheptadecine-7-carboxamide], the EC50 stood at 921 nM and the Emax stood at 335%.

As for `COc1nccc2c1C(=O)N[C@H](C(=O)NCCc1noc(C3CC3)n1)CC(=O)N(C)[C@@H](CC(C)C)C(=O)N1CCCCC[C@@H]1C(=O)N[C@H](Cc1ccccc1)CO2` [Example 863, (7S,11S,18aR,21R)-21-benzyl-N-(2-(5-cyclopropyl-1,2,4-oxadiazol-3-yl)ethyl)-11-isobutyl-4-methoxy-10-methyl-5,9,12,19-tetraoxo-5,6,7,8,9,10,11,12,14,15,16,17,18,18a,19,20,21,22-octadecahydroazepino[2,1-f]pyrido[3,4-p][1]oxa[4,7,10,14]tetraazacycloheptadecine-7-carboxamide], the EC50 stood at 587 nM and the Emax amounted to 326%.

In the case of `COc1nccc2c1C(=O)N[C@H](C(=O)NCCc1noc(C3CC3)n1)CC(=O)N(C)[C@@H](CC(C)C)C(=O)N(C)[C@H](CCc1nc(C3CC3)no1)C(=O)N[C@H](Cc1ccccc1)CO2` [Example 864, (3R,6R,9S,13S)-3-benzyl-N-(2-(5-cyclopropyl-1,2,4-oxadiazol-3-yl)ethyl)-6-(2-(3-cyclopropyl-1,2,4-oxadiazol-5-yl)ethyl)-9-isobutyl-16-methoxy-7,10-dimethyl-5,8,11,15-tetraoxo-2,3,4,5,6,7,8,9,10,11,12,13,14,15-tetradecahydropyrido[3,4-p][1]oxa[4,7,10,14]tetraazacycloheptadecine-13-carboxamide], the EC50 is 617 nM and the Emax was found to be 385%.

Consider `COc1cccc(CCNC(=O)[C@@H]2CC(=O)N(C)[C@@H](CC(C)C)C(=O)N(C)[C@H](C(C)(C)C)C(=O)N[C@H](Cc3ccccc3)COc3cc(C)nc(OC)c3C(=O)N2)c1` [Example 865, (3R,6R,9S,13S)-3-benzyl-6-(tert-butyl)-9-isobutyl-16-methoxy-N-(3-methoxyphenethyl)-7,10,18-trimethyl-5,8,11,15-tetraoxo-2,3,4,5,6,7,8,9,10,11,12,13,14,15-tetradecahydropyrido[3,4-p][1]oxa[4,7,10,14]tetraazacycloheptadecine-13-carboxamide], for which the EC50 came out at 103 nM and the Emax was 356%.

Turning to `COc1nc(C)cc2c1C(=O)N[C@H](C(=O)NCCc1cc(C)no1)CC(=O)N(C)[C@@H](CC(C)C)C(=O)N(C)[C@H](C(C)(C)C)C(=O)N[C@H](Cc1ccccc1)CO2` [Example 866, (3R,6R,9S,13S)-3-benzyl-6-(tert-butyl)-9-isobutyl-16-methoxy-7,10,18-trimethyl-N-(2-(3-methylisoxazol-5-yl)ethyl)-5,8,11,15-tetraoxo-2,3,4,5,6,7,8,9,10,11,12,13,14,15-tetradecahydropyrido[3,4-p][1]oxa[4,7,10,14]tetraazacycloheptadecine-13-carboxamide], the EC50 stood at 337 nM and the Emax amounted to 324%.
